Laboratory results as given in PubChem BioAssay AID463199 (Broad Institute, 2010).
Activity calls are given as the source filed them.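 The calls were made as follows: active = AC50, the dose giving half-maximal effect, exceeds a fixed cutoff for a compound that rescues yeast growth under heat; inactive = the rest, inconclusive results apart.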 Where a SMILES comes first, the peptide text is derived from it.

Test system: S. cerevisiae Burl-1 ts mutant growth, BacTiter-Glo, 38.5C 24 h
Assay: restored growth of temperature-sensitive Burl-1 yeast – whole organism, S. cerevisiae, Burl-1 ts mutant, luminescence, counter-screen for SUMOylation pathway inhibitor project, dose response (AID 463199)

COc1ccc(OC)c(N(CC(=O)N2CCCC2)S(=O)(=O)c2ccccc2)c1 was tested, and the AC50 was > 42 µM (inactive).

With OC[C@@H](O)CCl the AC50 was > 42 µM (inactive).

In the case of COc1cc(NC(=O)c2cc(Cl)ccc2Cl)ccc1-c1cc2ccccc2oc1=O, the AC50 is reported as > 42 µM (inactive).

For Cc1cc(Br)ccc1NC(=O)c1cnc(N2CCN(c3ccccn3)CC2)c2ccccc12, the AC50 was > 42 µM (inactive).

O=C(COC(=O)c1ccccc1SCC(=O)N1CCCC1)NC1CCCCC1 was tested, and the AC50 was > 42 µM (inactive).

For Cc1ccc(C)n1-c1ccc(N(C)C)cc1, the AC50 was > 42 µM (inactive).

For O=C(COC(=O)c1c(F)cccc1F)c1ccc[nH]1, the AC50 was > 42 µM (inactive).

In the case of CC(=O)c1ccc(N=C2SCCCN2C(=O)C2CCCC2)cc1, the AC50 is reported as > 42 µM (inactive).

O=C(NCc1ccco1)c1ccc(Br)c(S(=O)(=O)N2CCCCC2)c1 was tested, and the AC50 was > 42 µM (inactive).

For Cc1ccc(N(C(C)C(=O)O)S(=O)(=O)c2c(C)n[nH]c2C)cc1 (stereo not drawn), the AC50 was > 42 µM (inactive).

For C/C(=N\NC(=O)c1ccc(Cl)cc1)c1cccnc1, the AC50 was > 42 µM (inactive).

In the case of CN(Cc1ccccc1)c1ccc(S(=O)(=O)N2CCC(C(=O)O)CC2)cc1[N+](=O)[O-], the AC50 is reported as > 42 µM (inactive).

With O=C(Cc1cccs1)Nc1cccc(-c2nnc(-c3ccco3)o2)c1 the AC50 was > 42 µM (inactive).

In the case of CCN(CC)C1CCN(C(=O)c2cc(COc3ccc(-n4cncn4)cc3)on2)C1 (stereo not drawn), the AC50 is reported as > 42 µM (inactive).

With O=C(NCC1CCN(Cc2ccccc2Cl)CC1)Nc1ccccc1F the AC50 was > 42 µM (inactive).

In the case of COc1cccc(/C=N/NC(=O)CNC(=O)c2ccco2)c1O, the AC50 is reported as > 42 µM (inactive).

Nc1nc(CSc2nnnn2-c2ccc(Cl)cc2)nc(N2CCOCC2)n1 was tested, and the AC50 was > 42 µM (inactive).

COc1ccc(N(CC(=O)NCc2ccc(C)cc2)S(=O)(=O)c2c(C)nn(C)c2C)cc1 was tested, and the AC50 was > 42 µM (inactive).

O=C(Nc1cc(F)ccc1F)C1CCCO1 (stereo not drawn) was tested, and the AC50 was > 42 µM (inactive).

In the case of O=C(O)c1c(C(=O)O)c(-c2ccc(F)cc2)n2c1CCC2, the AC50 is reported as > 42 µM (inactive).

COc1cc(C)c(Cl)c(C)c1S(=O)(=O)NCc1ccc2c(c1)OCO2 was tested, and the AC50 was > 42 µM (inactive).

In the case of CCN(CC)c1nc2c(c(=O)[nH]c(=O)n2C)n1CCOc1ccccc1, the AC50 is reported as > 42 µM (inactive).

With Cc1c(NC(=O)c2cc(-c3ccccc3O)on2)c(=O)n(-c2ccccc2)n1C the AC50 was > 42 µM (inactive).

CCOc1cc(NC(=O)c2cccs2)c(OCC)cc1NC(=O)CCC(=O)NCCN1CCOCC1 was tested, and the AC50 was > 42 µM (inactive).

O=C1CCCC2=C1C(c1ccncc1)c1c(nc(SCc3ccccc3Cl)[nH]c1=O)N2 (stereo not drawn) was tested, and the AC50 was > 42 µM (inactive).

In the case of O=C1NC(c2ccccc2)C(C(=O)c2cccs2)C(O)(C(F)(F)F)N1 (stereo not drawn), the AC50 is reported as > 42 µM (inactive).

COc1cc(/C=C(\C#N)C(=O)Nc2ccc(C(=O)O)cc2)ccc1OC(=O)c1cccc(F)c1 was tested, and the AC50 was > 42 µM (inactive).

For Nc1cc(C(=O)OCC(=O)N2CCOCC2)ccc1Cl, the AC50 was > 42 µM (inactive).

With O=C1NC(=O)C(=Cc2ccc(N3CCOCC3)cc2)C(=O)N1 the AC50 was > 42 µM (inactive).

COC(=O)C1CN(C#N)N(c2ccc(Cl)cc2)C12c1ccccc1-c1ccccc12 (stereo not drawn) was tested, and the AC50 was > 42 µM (inactive).

C/C(=N\N=C(c1ccccc1)c1ccccc1)c1ccco1 was tested, and the AC50 was > 42 µM (inactive).

Cc1ccc(C(=O)N/C(=C/c2ccccc2)C(=O)NCC2CCCO2)cc1 (stereo not drawn) was tested, and the AC50 was > 21 µM (inactive).

For Cc1ccc(C(=O)Nc2ccc3c(c2)OCCO3)c(Cl)c1, the AC50 was > 42 µM (inactive).

In the case of CN1C(=O)C(=Cc2ccc(N3CCCCC3)o2)C(=O)N(C)C1=S, the AC50 is reported as > 42 µM (inactive).

COC(=O)c1cc(Cl)c(NC(=O)C(C)C)cc1OC was tested, and the AC50 was > 42 µM (inactive).

With CCOc1ccc(CCN2CN(C3CCCCC3)CNC2=S)cc1OCC the AC50 was > 42 µM (inactive).

In the case of COc1cccc(Cn2cnc3c(NS(=O)(=O)c4cccc(Cl)c4Cl)c(C)c(C)cc32)c1, the AC50 is reported as > 42 µM (inactive).

For CCOc1ccccc1N(C(=O)c1snc(C(N)=O)c1N)C(CC)C(=O)NC1CCCC1 (stereo not drawn), the AC50 was > 42 µM (inactive).

Cc1ccc(NC(=O)Cn2nnc(C(=O)NCc3ccc4c(c3)OCO4)c2N)cc1 was tested, and the AC50 was > 42 µM (inactive).

CC(=O)Nc1ccc(C(=O)NCCCOC(C)C)cc1 was tested, and the AC50 was > 42 µM (inactive).

Cc1ccc(NC(=O)CN2CCN(CCN=CC3=C(O)CC(C)(C)CC3=O)CC2)cc1 was tested, and the AC50 was > 42 µM (inactive).

With COCc1[nH][nH]c(=O)c1C=Nc1ccc(OC(F)(F)F)cc1 the AC50 was > 42 µM (inactive).

With COc1cc(NC(=O)CN2CCN(CC(=O)Nc3ccccc3OC)CC2)cc(OC)c1 the AC50 was > 42 µM (inactive).

For O=c1oc2cc(S(=O)(=O)NCCCO)ccc2c2ccc(S(=O)(=O)NCCCO)cc12, the AC50 was > 42 µM (inactive).

For O=C(Nc1ccc2nc(-c3ccc4nc[nH]c4c3)[nH]c2c1)c1cccs1, the AC50 was > 42 µM (inactive).

For Cc1cnc(C(=O)OCC(=O)Nc2ccc(C)c(S(=O)(=O)N(C)C)c2)cn1, the AC50 was > 42 µM (inactive).

For CN(C(=O)c1ccc(-c2nn(C)c(=O)c3ccccc23)cc1)C1CCCCC1, the AC50 was > 42 µM (inactive).

With O=C(Nc1cccc(C(=O)Nc2ccc(F)cc2F)c1)c1ccccc1 the AC50 was > 42 µM (inactive).

C/C(N)=C(/C#N)C(=O)CSc1nnc(-c2ccccc2)n1C was tested, and the AC50 was > 42 µM (inactive).

With CCN1C(=NCc2cccc(Cl)c2)N[C@@H](c2cccc(F)c2)C(C(=O)OC)=C1C the AC50 was > 42 µM (inactive).

In the case of CC(=O)N1CC(=O)Nc2ccc(Cl)cc2C1c1ccccc1 (stereo not drawn), the AC50 is reported as > 42 µM (inactive).

With NNC(=O)c1[nH]c2ccccc2c1-c1ccccc1 the AC50 was > 42 µM (inactive).

With CC(=O)N1CCc2cc(S(=O)(=O)CCC(=O)N3CCN(C(=O)c4ccco4)CC3)ccc21 the AC50 was > 42 µM (inactive).

CCS(=O)(=O)N1CCCC(C(=O)NCc2cccnc2)C1 (stereo not drawn) was tested, and the AC50 was > 42 µM (inactive).

With CNC(=O)COC(=O)c1cc(-c2ccco2)nc2ccccc12 the AC50 was > 42 µM (inactive).

With CC(=O)c1c(N)[nH]c(-c2ccccc2)nc1=S the AC50 was > 42 µM (inactive).

In the case of Clc1ccc(CSc2nnc(CN3CCOCC3)n2-c2ccccc2)cc1Cl, the AC50 is reported as > 42 µM (inactive).

For CC(=O)NC(CC(C)C)C(=O)NC(CO)C(=O)NC(CCC(=O)O)C(=O)NC(C)C(=O)NC(CC(C)C)C(N)=O (stereo not drawn) (Ac-LSEAL-NH2; configuration not given here), the AC50 was > 42 µM (inactive).

In the case of COc1cc2c(cc1NC(=O)c1cccnc1)oc1ccccc12, the AC50 is reported as > 42 µM (inactive).

With O=S1(=O)NC(c2ccccc2)CC(CC2CCCCC2)O1 (stereo not drawn) the AC50 was > 42 µM (inactive).

For Cc1cc(C)n(-c2nc3ccccc3nc2N2CCN(C(=O)c3ccccc3)CC2)n1, the AC50 was > 42 µM (inactive).

CC(C)(C)NC(=S)NCc1cccnc1 was tested, and the AC50 was > 42 µM (inactive).

O=C(NC1CCc2ccccc21)c1cc(COc2ccc(F)cc2F)on1 (stereo not drawn) was tested, and the AC50 was > 42 µM (inactive).

CCSc1nc2ccccc2c(=O)n1C1CCOC(C)(C)C1 (stereo not drawn) was tested, and the AC50 was > 42 µM (inactive).

In the case of CC(C)c1ccc2c(c1)CCC1C(C)(CN)CCCC21C (stereo not drawn), the AC50 is reported as > 42 µM (inactive).

With COc1ccccc1NS(=O)(=O)c1cc(Cl)ccc1OC the AC50 was > 42 µM (inactive).

For Cc1cc(NC(=O)/C=C/c2ccco2)ccc1NC(=O)c1ccccc1, the AC50 was > 42 µM (inactive).

In the case of COc1cc(C(=O)Oc2cccnc2)cc(OC)c1OC, the AC50 is reported as > 42 µM (inactive).

CS(=O)(=O)N1CCCC(C(=O)Nc2ccc(F)cc2F)C1 (stereo not drawn) was tested, and the AC50 was > 42 µM (inactive).

For Cc1ccc(Oc2ccccc2NC(=O)C2=COCCO2)cc1, the AC50 was > 42 µM (inactive).

With CSc1ccccc1-n1nnnc1SCC(=O)Nc1ccccc1C the AC50 was > 42 µM (inactive).

For Cc1ccc(C(C(=O)Nc2ccc3c(c2)OCO3)N(C)C(=O)/C=C\c2ccc3c(c2)OCO3)cc1 (stereo not drawn), the AC50 was > 42 µM (inactive).

In the case of COc1ccc(-c2cc(C#N)nc(N3CCN(c4ccccc4)CC3)n2)cc1, the AC50 is reported as > 42 µM (inactive).

With CNC(=O)Nc1cc(NC(=O)NC)cc(C(F)(F)F)c1 the AC50 was > 42 µM (inactive).

With O=C(c1cc(Cl)c(=O)n(Cc2ccc(Cl)cc2)c1)N1CCOCC1 the AC50 was > 42 µM (inactive).

For Cc1cc(/C=C2\C(=O)NC(=O)N(c3ccccc3F)C2=O)c(C)n1-c1cc(C(=O)O)cc(C(=O)O)c1, the AC50 was > 42 µM (inactive).

For O=C(CN1CCN(c2nc(-c3ccccc3)cs2)CC1)NNC(=O)c1ccc(Br)cc1, the AC50 was > 42 µM (inactive).

Cc1cc(C)cc(NC(=O)CS(=O)(=O)c2ccccc2)c1 was tested, and the AC50 was > 42 µM (inactive).

Work on CC(C)(C)NC(=O)CC1C(=O)NCCN1Cc1c(F)cccc1Cl (stereo not drawn) yielded an AC50 of 37.4 µM.

With Cc1ccc(NC(=O)CC2CS(=O)(=O)CC2CC(=O)Nc2ccc(C)c(C)c2)cc1C (stereo not drawn) the AC50 was 19.2 µM.

With O=C(NCc1csc(-c2cccs2)n1)Nc1ccc(F)cc1F the AC50 was > 42 µM (inactive).

CC1CC(c2ccccc2)NS(=O)(=O)O1 (stereo not drawn) was tested, and the AC50 was > 42 µM (inactive).

O=C(c1ccc(Br)cc1)C(CN1CCOCC1)c1ccccc1 (stereo not drawn) showed an AC50 of 1.86 µM.

For CSc1cc(C)c(OCC(=O)Nc2c(C)nn(C)c2C)c(C)c1, the AC50 was > 42 µM (inactive).

With CC1CC(C)(C)NC(=S)N1CC(=O)NCc1ccc(F)cc1 (stereo not drawn) the AC50 was > 42 µM (inactive).

For CCOC(=O)C1=C(C)NC(C)=C(C(=O)OCC)C1C(=O)OC1CCOC1=O (stereo not drawn), the AC50 was > 42 µM (inactive).

With Oc1ccc(Br)cc1/C=N/n1c(COc2ccccc2)n[nH]c1=S the AC50 was > 42 µM (inactive).

With CCOc1ccc(N(C(=O)C2CCCO2)C2C=CS(=O)(=O)C2)cc1 (stereo not drawn) the AC50 was > 42 µM (inactive).

C/C(CC(=O)NC1CCCCC1)=N\NC(=O)Cc1ccc(-c2ccccc2)cc1 was tested, and the AC50 was > 42 µM (inactive).

O=C(c1cn(-c2ccccc2)nc1-c1cccs1)N1CCOCC1 was tested, and the AC50 was > 42 µM (inactive).

Cc1ccc(O)c(C(=O)CC(=O)c2cccc(F)c2)c1 gave an AC50 of 20.1 µM.

Cc1ccc(Nc2cc(C)nc3c(C)ccc([N+](=O)[O-])c23)cc1 was tested, and the AC50 was > 21 µM (inactive).

With COc1ccc(N2C(=O)CCC(C(=O)NCc3cccnc3)C2c2ccc(OC)c(OC)c2)cc1 (stereo not drawn) the AC50 was > 42 µM (inactive).

For O=C(Nc1ccccc1N1CCOCC1)c1cc(Br)c(Br)s1, the AC50 was > 42 µM (inactive).

In the case of O=C(O)c1ccc(Cl)c(NCc2cccs2)c1, the AC50 is reported as > 42 µM (inactive).

For COCCN(C(=O)c1csnn1)C(C(=O)NC1CCCCC1)c1ccccc1 (stereo not drawn), the AC50 was > 42 µM (inactive).

COC(=O)[C@@H](NC(=O)Nc1ccc(S(N)(=O)=O)cc1)C(C)C was tested, and the AC50 was > 42 µM (inactive).

With COc1cccc(OC)c1C(=O)Nc1ccc2c(c1)N(S(=O)(=O)c1cccs1)CCC2 the AC50 was > 42 µM (inactive).
